Patent US20260041704A1, “COMPOSITIONS AND METHODS FOR TREATING SICKLE CELL DISEASE” (Beren Therapeutics P.B.C., priority 2022, published 2026)

What was measured:
Format in all cases: cell-based, human
[1] = system: RBCs from sickle cell disease patients (SS); assay: Free hemoglobin assay (Drabkin's reagent) in supernatants, RBCs from sickle cell patients; conditions: 1 h incubation
[2] = system: RBCs from healthy individuals (AA); assay: Free hemoglobin assay (Drabkin's reagent) in supernatants, RBCs from healthy individuals; conditions: 5 mM 2-HPBCD, 1 h incubation, RBCs from healthy control individuals (AA) in PBS, FIG. 4
[3] = system: RBCs from healthy individuals (AA); assay: Red blood cell deformability by ektacytometry (LORRCA), RBCs from healthy individuals; conditions: 5 mM 2-HPBCD, 1 h at 37° C, RBCs from healthy controls (AA) in PBS
Source text: Subjects and blood preparation: 17 sickle cell patients (24.1 +/-12.1 years old) and 6 healthy individuals (26 +/−3.9 years old) were included in this study. 12 sickle cell patients were at steady state at the time of inclusion and 5 had vaso-occlusive crisis the day of inclusion. 14 patients were under hydroxyurea therapy. Blood was drawn into EDTA tubes, centrifuged, and plasma and buffy coat were removed and kept until utilization. RBCs were washed in PBS 1X (Phosphate Buffered Saline, 1X Solution) and resuspended at hematocrit 20% either in PBS 1X or in autologous plasma. Then RBCs were incubated for 1 h at 37° C, with 3 or 5 mM 2-HPBCD or vehicle for control condition (Ctrl). […]
Red blood cell deformability: RBC deformability was assessed at 37° C, at shear stresses ranging from 0.3 to 30 Pa by laser diffraction analysis (ektacytometry), using a Laser-assisted Optical Rotational Cell Analyzer (LORRCA MaxSis, RR Mechatronics. Hoorn. The Netherlands). […] The shear stress-induced deformation of RBCs affected the laser beam's diffraction pattern, which was measured by the LORRCA software, and used to calculate an elongation index. […]
Statistical analysis: effects of treatments on deformability parameters (EImax and SS1/2) and free hemoglobin concentration were analyzed by using a paired t-test or Wilcoxon test when appropriate. […]

[4] = system: RBCs from sickle cell disease patients (SS); assay: Red blood cell deformability by ektacytometry (LORRCA), RBCs from sickle cell patients
Source text: Subjects and blood preparation: 17 sickle cell patients (24.1 +/-12.1 years old) and 6 healthy individuals (26 +/−3.9 years old) were included in this study. 12 sickle cell patients were at steady state at the time of inclusion and 5 had vaso-occlusive crisis the day of inclusion. 14 patients were under hydroxyurea therapy. Blood was drawn into EDTA tubes, centrifuged, and plasma and buffy coat were removed and kept until utilization. RBCs were washed in PBS 1X (Phosphate Buffered Saline, 1X Solution) and resuspended at hematocrit 20% either in PBS 1X or in autologous plasma. Then RBCs were incubated for 1 h at 37° C, with 3 or 5 mM 2-HPBCD or vehicle for control condition (Ctrl). The vehicle for control condition was the PBS IX or plasma respectively, i.e., without addition of the 2-HPBCD.
Red blood cell deformability: RBC deformability was assessed at 37° C, at shear stresses ranging from 0.3 to 30 Pa by laser diffraction analysis (ektacytometry), using a Laser-assisted Optical Rotational Cell Analyzer (LORRCA MaxSis, RR Mechatronics. Hoorn. The Netherlands). 10 μL of RBC suspensions were mixed with 1 ml polyvinylpyrrolidone (PVP: viscosit≈30 cP) and sheared into a Couette system. A laser beam was directed through the samples. The shear stress-induced deformation of RBCs affected the laser beam's diffraction pattern, which was measured by the LORRCA software, and used to calculate an elongation index. A higher elongation index represents greater RBC deformability. The Lineweaver-Burke method was used to calculate the maximum elongation index at infinite shear stress (EImax) and the shear stress required to reach half of this maximum elongation index (SS1/2).
Statistical analysis: effects of treatments on deformability parameters (EImax and SS1/2) and free hemoglobin concentration were analyzed by using a paired t-test or Wilcoxon test when appropriate. Comparisons of RBC deformability between healthy individuals and patients were achieved using Student's t-test. A p value<0.05 was considered as significant. Analyses were performed with Graphpad Prism 9 software.

## CC(O)COC[C@H]1O[C@@H]2O[C@H]3[C@H](O)[C@@H](O)[C@@H](O[C@H]4[C@H](O)[C@@H](O)[C@@H](O[C@H]5[C@H](O)[C@@H](O)[C@@H](O[C@H]6[C@H](O)[C@@H](O)[C@@H](O[C@H]7[C@H](O)[C@@H](O)[C@@H](O[C@H]8[C@H](O)[C@@H](O)[C@@H](O[C@H]1[C@H](O)[C@H]2O)O[C@@H]8COCC(C)O)O[C@@H]7COCC(C)O)O[C@@H]6COCC(C)O)O[C@@H]5COCC(C)O)O[C@@H]4COCC(C)O)O[C@@H]3COCC(C)O (stereo partly drawn) [2-HPBCD, 2-hydroxypropyl-β-cyclodextrin]
[1]; 3 mM 2-HPBCD, RBCs from sickle cell disease patients in PBS, p<0.05, FIG. 6A
  effect on free hemoglobin released by RBCs: significantly decreased
[1]; 5 mM 2-HPBCD, RBCs from sickle cell anemia patients in PBS, p<0.05, FIG. 5A
  change of free hemoglobin released by RBCs vs control: −6.4%
[1]; 5 mM 2-HPBCD, SS RBCs with high basal free hemoglobin content in PBS, p<0.01, FIG. 5B
  change of free hemoglobin released by RBCs vs control, patients with low basal free hemoglobin removed: −29.9%
[2]
  effect on free hemoglobin release in the supernatant: no significant effect
[3]; FIG. 1B
  effect on SS1/2 (printed SSin): no significant effect
[3]; p<0.05, FIG. 1A
  change of RBC EImax vs control: +4.4%
[4]; 3 mM or 5 mM 2-HPBCD
  effect on deformability of SCD RBCs: increased deformability
[4]; 5 mM 2-HPBCD, 1 h at 37° C, incubated in PBS, p<0.01, FIG. 2A
  change of sickle cell RBCs EImax vs control: +12.7%
[4]; 5 mM 2-HPBCD, 1 h at 37° C, incubated in PBS, p<0.5 as printed, FIG. 2B
  change of sickle cell RBC SS1/2 vs control: −8.1%
[4]; 5 mM 2-HPBCD, 1 h at 37° C, incubated in plasma, FIG. 2D
  effect on SS1/2 in sickle cell RBCs: did not significantly change
[4]; 5 mM 2-HPBCD, 1 h at 37° C, incubated in plasma, p<0.01, FIG. 2C
  change of sickle cell RBC EImax vs control: +12.4%
